In one experiment the test system is HSV-1 (VR-3). Description: Plaque inhibition (growth inhibition) in vero cell monolayer, HSV-1. It counts as cell-based, herpes simplex virus 1 (HSV-1). The conditions noted are these: for IC50: Human alphaherpesvirus 1, Vero, compound alone, read-out: Concentraten at 50% plaque inhibition (IC50), single compound. The method, then:
(§1) A monolayer culture of Cercopithecus sabaeus renal cells (vero cells) was prepared in Eagle's minimum medium containing 10% of newborn calf serum (MEM-CS10) by using a 24-well microplate. Then the medium was inoculated with 50 PFU/0.1 ml/well of herpes simplex virus 1 (HSV-1) or 2 (HSV-2). After effecting adsorption at 37°C for 1 hour, the cells in each well were washed with a phosphate buffer solution (PBS). Next, 0.5% methylcellulose-containing MEM-CS2 containing stepwise diluted OXT-G, ACV or C-OXT-G alone, a combination of OXT-G and ACV, a combination of OXT-G and C-OXT-G or a combination of ACV and C-OXT-G was laminated thereon and incubated at 37°C for 2 days. After discarding the laminated medium and fixing the cells with […], the cells were stained with a Crystal Purple solution and plaques formed in each well were counted. Then the ratio (%) of the plaque count at each concentration to that of the control lot, to which no chemical was added, was determined to thereby give the 50% plaque inhibition concentration (IC₅₀). Thus the inhibitory rate (%) against the concentration of each compound was calculated.

For the next experiment, the system named is HSV-2 (VW-268). Description: Plaque inhibition (growth inhibition) in vero cell monolayer, HSV-2. It counts as cell-based, herpes simplex virus 2 (HSV-2). Particulars: for IC50: Human alphaherpesvirus 2, Vero, compound alone, read-out: Concentraten at 50% plaque inhibition (IC50), single compound. The method, then:
as §1

Read-outs that look alike come from different tables or passages of the source.

For orientation: IC50 means the point on the concentration scale where inhibition reaches its midpoint. As for `Nc1nc2c(ncn2COCCO)c(=O)[nH]1` [ACV, 9-(2-hydroxyethoxymethyl)guanine, reference compound], the “ACV inhibitory rate (single compound at the same concn., theoretical)” value with HSV-1 (VR-3) (ACV alone 0.04 μg/mℓ) is reported as “(2%)”; in the experiment with HSV-1 (VR-3) (ACV alone 0.08 μg/mℓ), “(3%)”; in the experiment with HSV-1 (VR-3) (ACV alone 0.32 μg/mℓ), “(12%)”; in the experiment with HSV-1 (VR-3) (ACV alone 0.42 μg/mℓ), “(15%)”; in the experiment on HSV-2 (VW-268) (ACV alone 0.1 μg/mℓ) it was “(2%)”; in the experiment on HSV-2 (VW-268) (ACV alone 0.4 μg/mℓ) it was “(8%)”. Besides, the “ACV inhibitory rate (single compound at the same concn., theoretical)” value is recorded as “(19%)” in the experiment with HSV-2 (VW-268) (ACV alone 1.3 μg/mℓ); “(30%)” with HSV-2 (VW-268) (ACV alone 1.5 μg/mℓ); “(36%)” in the experiment on HSV-2 (VW-268) (ACV alone 1.8 μg/mℓ); “(28%)” with HSV-2 (VW-268) (ACV alone 1.9 μg/mℓ); “(40%)” with HSV-2 (VW-268) (ACV alone 2.7 μg/mℓ). In addition, the entries for the “ACV inhibitin rate (single compound at the same concn., theoretical)” value in the experiment with HSV-1 (VR-3) (ACV alone 0.1 μg/mℓ) and with HSV-1 (VR-3) (ACV alone 0.58 μg/mℓ) were “(6%)” and “(37%)”, respectively. Also, the ACV inhibitin rate with HSV-1 (VR-3) (ACV alone 0.78 μg/mℓ) is given as 50%. Further, the ACV inhibitory rate in the experiment with HSV-1 (VR-3) (ACV alone 1.4 μg/mℓ), in the experiment with HSV-2 (VW-268) (ACV alone 2.5 μg/mℓ) and in the experiment on HSV-2 (VW-268) (ACV alone 3.4 μg/mℓ) was 50% throughout. Besides, the IC50 was 0.78 µg/mL with HSV-1 (VR-3) (C-OXT-G/ACV series), 1.4 µg/mL in the experiment on HSV-1 (VR-3) (OXT-G/ACV series), 2.5 µg/mL with HSV-2 (VW-268) (C-OXT-G/ACV series) and 3.4 µg/mL with HSV-2 (VW-268) (OXT-G/ACV series).
On to `Nc1nc2c(ncn2[C@@H]2C[C@H](CO)[C@H]2CO)c(=O)[nH]1` [C-OXT-G, (+)-9-[(1R,2R,3S)-2,3-bis(hydroxymethyl)cyclobutyl]guanine], for which the “C-OXT-G inhibitory rate (single compound at the same concn., theoretical)” value in the experiment with HSV-1 (VR-3) (C-OXT-G alone 0.01 μg/mℓ) is listed as “(2%)”; in the experiment with HSV-1 (VR-3) (C-OXT-G alone 0.04 μg/mℓ), “(3%)”; in the experiment with HSV-1 (VR-3) (C-OXT-G alone 0.1 μg/mℓ) it was “(8%)”; with HSV-1 (VR-3) (C-OXT-G alone 0.2 μg/mℓ) it was “(33%)”; in the experiment with HSV-1 (VR-3) (C-OXT-G alone 0.4 μg/mℓ) it was “(33.3%)”; in the experiment on HSV-2 (VW-268) (C-OXT-G alone 0.04 μg/mℓ), “(3%)”. The “C-OXT-G inhibitory rate (single compound at the same concn., theoretical)” value in the experiment with HSV-2 (VW-268) (C-OXT-G alone 0.1 μg/mℓ) is recorded as “(7%)”; in the experiment with HSV-2 (VW-268) (C-OXT-G alone 0.3 μg/mℓ), “(20%)”; in the experiment on HSV-2 (VW-268) (C-OXT-G alone 0.54 μg/mℓ), “(36%)”. Further, the C-OXT-G inhibitory rate in the experiment with HSV-1 (VR-3) (C-OXT-G alone 0.3 μg/mℓ), in the experiment with HSV-1 (VR-3) (C-OXT-G alone 0.60 μg/mℓ) and with HSV-2 (VW-268) (C-OXT-G alone 0.74 μg/mℓ) was 50% each time. Further, the IC50 was found to be 0.3 µg/mL with HSV-1 (VR-3) (C-OXT-G/ACV series), 0.6 µg/mL in the experiment on HSV-1 (VR-3) (OXT-G/C-OXT-G series) and 0.74 µg/mL with HSV-2 (VW-268) (C-OXT-G/ACV series).
As to `Nc1nc2c(ncn2[C@@H]2O[C@H](CO)[C@H]2CO)c(=O)[nH]1` [OXT-G, 9-(2-deoxy-2-hydroxymethyl-β-D-erythrooxetanosyl)guanine], the IC50 came out at 7 µg/mL in the experiment on HSV-1 (VR-3) (OXT-G/ACV series), 7.3 µg/mL with HSV-1 (VR-3) (OXT-G/C-OXT-G series) and 10 µg/mL in the experiment on HSV-2 (VW-268) (OXT-G/ACV series). Moreover, the “OXT-G inhibitory rate (single compound at the same concn., theoretical)” value in the experiment on HSV-1 (VR-3) (OXT-G alone 0.1 μg/mℓ) is reported as “(1%)”; in the experiment on HSV-1 (VR-3) (OXT-G alone 0.4 μg/mℓ), “(3%)”; in the experiment with HSV-1 (VR-3) (OXT-G alone 1.0 μg/mℓ) it was “(7%)”; with HSV-1 (VR-3) (OXT-G alone 1.7 μg/mℓ) it was “(12%)”; with HSV-1 (VR-3) (OXT-G alone 3.0 μg/mℓ), “(26%)”; in the experiment with HSV-1 (VR-3) (OXT-G alone 4.0 μg/mℓ) it was “(29%)”. The “OXT-G inhibitory rate (single compound at the same concn., theoretical)” value is “(39%)” with HSV-1 (VR-3) (OXT-G alone 5.4 μg/mℓ), “(2%)” in the experiment on HSV-2 (VW-268) (OXT-G alone 0.4 μg/mℓ), “(5%)” with HSV-2 (VW-268) (OXT-G alone 1.0 μg/mℓ) and “(20%)” in the experiment with HSV-2 (VW-268) (OXT-G alone 4.0 μg/mℓ). For the same compound, the results for the OXT-G inhibitory rate in the experiment on HSV-1 (VR-3) (OXT-G alone 7.0 μg/mℓ), with HSV-1 (VR-3) (OXT-G alone 7.3 μg/mℓ) and in the experiment with HSV-2 (VW-268) (OXT-G alone 10.0 μg/mℓ) were 50%, 50% and “(50%)”, respectively.

(Values after patent publication EP0477871A2, “Antiviral composition, containing guanine derivatives” (NIPPON KAYAKU KABUSHIKI KAISHA, priority 1990, dated 1992).)
